Residues, ends and D or L forms follow the SMILES beside them.

One assay deals with T1, human noradrenaline transporter (hNET) (Homo sapiens, UniProt P23975).
T1 construct: expressed in transfected cells; host or cells: COS-7 cells (ATCC), transient transfection with metafectene
T1 sequence (P23975 whole entry): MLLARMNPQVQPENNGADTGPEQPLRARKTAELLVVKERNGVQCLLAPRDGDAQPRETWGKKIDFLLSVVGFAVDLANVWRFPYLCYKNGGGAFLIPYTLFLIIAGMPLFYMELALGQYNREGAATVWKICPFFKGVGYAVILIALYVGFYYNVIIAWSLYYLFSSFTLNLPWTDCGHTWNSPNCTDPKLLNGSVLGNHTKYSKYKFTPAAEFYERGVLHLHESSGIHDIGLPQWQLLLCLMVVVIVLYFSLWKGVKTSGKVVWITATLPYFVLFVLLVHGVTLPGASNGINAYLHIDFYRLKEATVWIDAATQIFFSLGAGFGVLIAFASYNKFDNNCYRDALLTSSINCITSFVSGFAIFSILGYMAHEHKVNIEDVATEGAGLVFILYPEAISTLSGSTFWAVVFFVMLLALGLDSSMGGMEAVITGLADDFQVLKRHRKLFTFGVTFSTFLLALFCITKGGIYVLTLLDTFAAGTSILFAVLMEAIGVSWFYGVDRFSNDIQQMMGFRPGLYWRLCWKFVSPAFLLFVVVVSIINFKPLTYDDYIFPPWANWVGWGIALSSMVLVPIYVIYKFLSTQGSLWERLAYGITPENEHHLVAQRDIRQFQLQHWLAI
In words: biochemical. In kind it is binding.
Conditions: not given
YNGVCCGYWLCHPC [compound 211]: the “Av IC50 Displacement of 3H-nisoxetine from hNET” value was −2.00.

Staying with this assay, now noted: Av IC50 Displacement of 3H-nisoxetine from hNET.
As to `CC(C)C[C@H](NC(=O)CNC(=O)[C@H](CCCNC(=N)N)NC(=O)[C@@H](N)Cc1c[nH]c2ccccc12)C(=O)N[C@H]1CSSC[C@@H](C(N)=O)NC(=O)CNC(=O)[C@H](CCCNC(=N)N)NC(=O)[C@@H]2CSSC[C@H](NC1=O)C(=O)NCC(=O)N[C@@H](Cc1ccc(O)cc1)C(=O)N[C@@H](CCCCN)C(=O)N[C@@H](CC(C)C)C(=O)N2` [compound 64] (HELM PEPTIDE1{W.R.G.L.C.C.G.Y.K.L.C.R.G.C.[am]}$PEPTIDE1,PEPTIDE1,5:R3-14:R3|PEPTIDE1,PEPTIDE1,6:R3-11:R3$$$V2.0; N-terminus and C-terminus assumed), the IC50 is 0.191 µM.
In turn, `CC(C)C[C@@H]1NC(=O)[C@H](CCCCN)NC(=O)[C@H](Cc2ccc(O)cc2)NC(=O)CNC(=O)[C@@H]2CSSC[C@H](NC1=O)C(=O)N[C@@H](Cc1c[nH]cn1)C(=O)N1CCC[C@H]1C(=O)N[C@H](C(N)=O)CSSC[C@H](NC(=O)[C@@H](NC(=O)[C@H](CCCCN)NC(=O)[C@H](CC(N)=O)NC(=O)[C@@H](N)Cc1ccc(O)cc1)C(C)C)C(=O)N2` [compound 110] (HELM PEPTIDE1{Y.N.K.V.C.C.G.Y.K.L.C.H.P.C.[am]}$PEPTIDE1,PEPTIDE1,5:R3-14:R3|PEPTIDE1,PEPTIDE1,6:R3-11:R3$$$V2.0) had an IC50 of 0.977 µM. This IC50 is about 5.1-fold higher than that of the compound before.
On to `CC(C)C[C@@H]1NC(=O)[C@H](C)NC(=O)[C@H](Cc2ccc(O)cc2)NC(=O)CNC(=O)[C@@H]2CSSC[C@H](NC1=O)C(=O)N[C@@H](Cc1c[nH]cn1)C(=O)N1CCC[C@H]1C(=O)N[C@H](C(N)=O)CSSC[C@H](NC(=O)[C@@H](NC(=O)CNC(=O)[C@@H](N)CC(N)=O)C(C)C)C(=O)N2` [compound 172], for which the IC50 is 10.7 µM.
In the case of `CC(C)C[C@@H]1NC(=O)[C@H](CCCCN)NC(=O)[C@H](CCC(=O)O)NC(=O)CNC(=O)[C@@H]2CSSC[C@H](NC1=O)C(=O)N[C@@H](Cc1c[nH]cn1)C(=O)N1CCC[C@H]1C(=O)N[C@H](C(N)=O)CSSC[C@H](NC(=O)[C@@H](NC(=O)CNC(=O)[C@H](CC(N)=O)NC(=O)[C@@H](N)Cc1ccc(O)cc1)C(C)C)C(=O)N2` [compound 195] (HELM PEPTIDE1{Y.N.G.V.C.C.G.E.K.L.C.H.P.C.[am]}$PEPTIDE1,PEPTIDE1,5:R3-14:R3|PEPTIDE1,PEPTIDE1,6:R3-11:R3$$$V2.0), the 50% inhibitory concentration (IC50) is 170 µM.
Compound `CC(C)C[C@@H]1NC(=O)[C@H](CCCCN)NC(=O)[C@H](Cc2ccc(O)cc2)NC(=O)[C@@H](CCC(=O)O)NC(=O)[C@@H]2CSSC[C@H](NC1=O)C(=O)N[C@@H](Cc1c[nH]cn1)C(=O)N1CCC[C@H]1C(=O)N[C@H](C(N)=O)CSSC[C@H](NC(=O)[C@@H](NC(=O)CNC(=O)[C@@H](N)CC(N)=O)C(C)C)C(=O)N2` [compound 183] had an IC50 of 61.7 µM.
The same measure, in the same setting: in the case of `CC(C)C[C@@H]1NC(=O)[C@H](CCCCN)NC(=O)[C@H](Cc2ccc(O)cc2)NC(=O)CNC(=O)[C@@H]2CSSC[C@H](NC1=O)C(=O)N[C@@H](Cc1c[nH]c3ccccc13)C(=O)N1CCC[C@H]1C(=O)N[C@H](C(N)=O)CSSC[C@H](NC(=O)[C@@H](NC(=O)CNC(=O)[C@H](CC(N)=O)NC(=O)[C@@H](N)Cc1ccc(O)cc1)C(C)C)C(=O)N2` [compound 91] it was 0.389 µM; in that of `CC(C)C[C@@H]1NC(=O)[C@H](CCCCN)NC(=O)[C@H](Cc2ccc(O)cc2)NC(=O)CNC(=O)[C@@H]2CSSC[C@H](NC1=O)C(=O)N[C@@H](CCC(N)=O)C(=O)N1CCC[C@H]1C(=O)N[C@H](C(N)=O)CSSC[C@H](NC(=O)[C@@H](NC(=O)CNC(=O)[C@H](CC(N)=O)NC(=O)[C@@H](N)Cc1ccc(O)cc1)C(C)C)C(=O)N2` [compound 163] (HELM PEPTIDE1{Y.N.G.V.C.C.G.Y.K.L.C.Q.P.C.[am]}$PEPTIDE1,PEPTIDE1,5:R3-14:R3|PEPTIDE1,PEPTIDE1,6:R3-11:R3$$$V2.0), 6.92 µM.

These data come from patent US7507717B2 (Xenome Ltd., priority 2002, dated 2009).
